The target of test [1] is T1, recombinant human Cox-1 (r-hu Cox1) (Homo sapiens, UniProt P23219).
T1 construct: made in house; host or cells: baculovirus/Sf9 insect cells (microsomes)
Nature of the test: Recombinant human PGHS-1 enzyme assay (RHUCX1). In kind it is biochemical. As to conditions: read-out: RHUCX1 % Inh. at Dose. In short, it runs like this:
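Prostaglandin biosynthesis was measured as PGE2 output, read by enzyme immunoassay after a 2.5-minute room-temperature reaction stopped with HCl and neutralized with NaOH.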

For test [2], the system named is prostaglandin biosynthesis in vivo (pleural lavage eicosanoids). The experiment in a line: Rat carrageenan pleural inflammation (CIP) model. In short, it runs like this:
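Male adrenalectomized Sprague-Dawley rats were dosed orally with compound suspended in PEG 400, 30 minutes before intrapleural 2% lambda carrageenan. Pleural lavage collected 4 hours later went into methanol (66% final), and eicosanoids were measured by EIA. Inhibition relative to control mean; ED50 by linear regression.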

In test [3] the test system is carrageenan induced paw edema. Nature of the test: Carrageenan induced paw edema (CPE) in rats. The format is in vivo. Conditions: 10 mpk oral, rat, 3 hours after carrageenan; read-out: CPE % Inhib. @ 10 mpk. In outline: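 Male Sprague-Dawley rats (170–190 g) dosed orally in PEG 400, 1 h before subplantar 0.1 ml 1% lambda carrageenan in right hindpaw. Plethysmographic paw volume at 0 and 3 h; edema as difference, % inhibition versus control mean (±SEM), Dunnett's test, ED50 by linear regression.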
(Carrageenan injected into the paw causes an acute inflammation.)

Test [4] concerns the target T2, Human Whole Platelet Cyclooxygenase-1 (Homo sapiens, UniProt P23219).
T2 construct: from tissue; host or cells: human blood: isolated platelets (A4) or heparinised whole blood (A9)
The experiment in a line: Human Whole Platelet Cyclooxygenase-1 assay (HWPX). The format is cell-based. Conditions: read-out: HWPX IC50 (parenthetical value). In short, it runs like this:
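Washed platelets from healthy-donor ACD blood were pre-incubated with compound for 10 min, then stimulated with calcium ionophore A23187 (8.8 μM final) for 10 min. Reaction stopped with cold 6 mM EDTA; thromboxane in supernatants quantified with a commercial kit.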

Test [5] concerns the target T3, Cox-1 in Monocyte U937 cells (Homo sapiens, UniProt P23219).
T3 construct: endogenous in cells; host or cells: U937 monocyte cells (ATCC)
Nature of the test: Monocyte U937 cell Cox-1 assay. In kind it is cell-based. As to conditions: read-out: U937 IC50 (parenthetical value). As to the method:
Human amnionic WISH cells were grown to 80% confluence in 48 well plates. Following removal of the growth medium and two washings with Geys Balanced Salt Solutn, 5 ng IL-1β /ml (UBI, Lake Placid, N.Y.) was added to the cells with or without test compound in DMSO (0.01% v/v) in Neuman-Tytell Serumless Medium (GIBCO, Grand Island, N.Y.). Following an 18 hour incubation to allow for the maximal induction of PGHS-2, the conditioned medium was removed and assayed for PGE2 content by EIA analysis as described above.
Monocyte U937 (ATCC, Rockville, Md.) cells were grown in a similar fashion to the WISH cells. After incubation, the conditioned medium was removed and assayed for […] by EIA analysis as described above.

Usually ED50 stands for the dose that gives a 50% effect, or the effect in half of the subjects. A lower ED50 goes with an effect at a small dose. A word on the IC50: it is the concentration at which inhibition is half-maximal.

T1 sequence (P23219 24-599): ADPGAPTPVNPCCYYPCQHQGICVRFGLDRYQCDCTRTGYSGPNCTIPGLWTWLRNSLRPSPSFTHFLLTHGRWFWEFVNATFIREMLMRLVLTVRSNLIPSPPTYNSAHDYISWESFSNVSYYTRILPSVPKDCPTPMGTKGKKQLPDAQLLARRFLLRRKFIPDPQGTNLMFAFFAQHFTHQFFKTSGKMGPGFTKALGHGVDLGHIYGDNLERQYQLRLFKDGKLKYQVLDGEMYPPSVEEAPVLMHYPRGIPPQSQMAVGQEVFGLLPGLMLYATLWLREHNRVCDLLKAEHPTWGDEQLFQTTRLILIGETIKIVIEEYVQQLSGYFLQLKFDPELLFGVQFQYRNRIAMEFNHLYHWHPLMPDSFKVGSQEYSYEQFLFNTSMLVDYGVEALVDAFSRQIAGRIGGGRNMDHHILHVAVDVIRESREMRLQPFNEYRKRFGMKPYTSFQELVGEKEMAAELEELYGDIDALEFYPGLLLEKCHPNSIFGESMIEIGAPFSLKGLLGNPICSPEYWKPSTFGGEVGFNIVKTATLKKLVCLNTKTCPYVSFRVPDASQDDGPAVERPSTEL
T3 sequence (P23219 24-599): as above
T2 sequence (P23219 24-599): as above

Regarding `NS(=O)(=O)c1ccc(-c2cnn(-c3ccc(F)cc3)c(=O)c2-c2ccc(F)cc2)cc1` [Example 89], the inhibition at 10 µM in test [1] (10 μM) stood at 40%. Also, the inhibition at 30 µM in test [1] (30 μM) came out at 62%. Besides, the inhibition in vivo at 10 mg/kg in test [2] (4 h, 10 mpk oral, read-out: CIP % Inhib. @ 10 mpk) was determined as 68.3%; in test [3], 45.5%. Moreover, in test [2] (oral), the 50% effect level (ED50) was put at a dose of 3.4 mg/kg. The 50% inhibitory concentration (IC50) in test [4] was 2.1 µM; in test [5], 3.8 µM.

The record behind these values is patent US20020028938A1, “Prostaglandin endoperoxide H synthase biosynthesis inhibitors” (priority 1997, published 2002).
